Data on 23 molecules can be found in patent US9409866B2, “Pyridine-2-amides useful as CB2 agonists” (Hoffmann-La Roche Inc., priority 2012, dated 2016).

pEC50: −log10 of the molar value. Like-named read-outs stand apart in the source and are kept apart here.

Assay [1] concerns the target human CB2 receptors (Homo sapiens (Human), UniProt P34972). Briefly: functional cAMP assay, CHO cells expressing human CB2. The assay is classed as cell-based. Particulars: for EC50: Human CB2 EC50 (uM); for pEC50: read-out: Human CB2 EC50. The method, boiled down:
(§1)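 Readout: TR-FRET cAMP detection at 730 and 645 nm with 355 nm excitation, quantified from a standard curve spanning 10 μM to 0.13 nM cAMP. Human CB1- or CB2-expressing CHO cells were exposed to compound for 30 min at 30 °C in KRB buffer containing 1 mM IBMX. EC50 derived.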

Assay [2] has as its target human CB1 receptors (Homo sapiens (Human), UniProt P21554). Description: functional cAMP assay, CHO cells expressing human CB1. The format is cell-based. The method, boiled down: as §1
Setting [3] is: read-out: Human CB1 EC50; functional cAMP assay, CHO cells expressing human CB1.
Where [4] appears, read: Human CB1 EC50 (uM), functional cAMP assay, CHO cells expressing human CB1.
[5] abbreviates: functional cAMP assay, CHO cells expressing human CB1; read-out: Human CB1 EC50.

human CB1 receptors, sequence (P21554 whole entry): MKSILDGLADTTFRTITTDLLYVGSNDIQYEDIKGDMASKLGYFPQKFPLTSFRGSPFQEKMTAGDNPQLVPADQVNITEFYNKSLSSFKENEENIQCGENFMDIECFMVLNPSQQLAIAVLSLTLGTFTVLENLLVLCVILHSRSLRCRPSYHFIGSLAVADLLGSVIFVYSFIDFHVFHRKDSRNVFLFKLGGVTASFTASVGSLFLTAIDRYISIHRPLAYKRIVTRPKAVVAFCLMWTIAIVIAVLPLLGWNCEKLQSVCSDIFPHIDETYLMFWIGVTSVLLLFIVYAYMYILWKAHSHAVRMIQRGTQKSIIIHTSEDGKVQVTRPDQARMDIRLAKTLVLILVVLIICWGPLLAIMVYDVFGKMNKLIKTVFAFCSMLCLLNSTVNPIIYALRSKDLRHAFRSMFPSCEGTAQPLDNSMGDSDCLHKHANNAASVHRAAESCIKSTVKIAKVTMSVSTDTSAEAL
human CB2 receptors, sequence (P34972 whole entry): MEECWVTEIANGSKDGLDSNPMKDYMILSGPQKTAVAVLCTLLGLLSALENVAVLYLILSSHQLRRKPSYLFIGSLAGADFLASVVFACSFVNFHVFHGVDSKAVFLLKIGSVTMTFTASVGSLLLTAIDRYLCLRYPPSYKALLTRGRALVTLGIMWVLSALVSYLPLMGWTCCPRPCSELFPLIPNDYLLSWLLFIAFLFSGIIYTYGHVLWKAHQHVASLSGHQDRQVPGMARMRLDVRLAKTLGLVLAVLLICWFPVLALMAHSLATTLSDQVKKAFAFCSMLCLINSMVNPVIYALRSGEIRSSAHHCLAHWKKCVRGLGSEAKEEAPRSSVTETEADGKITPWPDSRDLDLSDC

Consider `Cc1nc(C(C)(CC2CC2)NC(=O)c2cc(OC(C)CF)c(C3CC3)cn2)no1` (single isomer, unassigned) [Example 288, 5-cyclopropyl-N-(1-cyclopropyl-2-(5-methyl-1,2,4-oxadiazol-3-yl)propan-2-yl)-4-(1-fluoropropan-2-yloxy)picolinamide], for which, in assay [1], the midpoint of the response, the EC50, lay at 0.0008 µM. Moreover, the pEC50 in assay [2] (setting [3]) was less than 5.00.

In the case of `Cc1nc(C(C)(CC2CC2)NC(=O)c2cc(OC(C)CF)c(C3CC3)cn2)no1` (single isomer, unassigned) [Example 289, 5-cyclopropyl-N-(1-cyclopropyl-2-(5-methyl-1,2,4-oxadiazol-3-yl)propan-2-yl)-4-(1-fluoropropan-2-yloxy)picolinamide], the pEC50 in assay [1] is 9.00; in assay [2] (setting [3]) it was less than 5.00.

In the case of `Cc1nc(C(C)(CC2CC2)NC(=O)c2cc(OC(C)CF)c(C3CC3)cn2)no1` (single isomer, unassigned) [Example 290, 5-cyclopropyl-N-(1-cyclopropyl-2-(5-methyl-1,2,4-oxadiazol-3-yl)propan-2-yl)-4-(1-fluoropropan-2-yloxy)picolinamide], the values for the pEC50 in assay [1] and in assay [2] (setting [3]) were 9.22 and less than 5.00, respectively.

For `CC(CF)Oc1cc(C(=O)NC2(CC(N)=O)CS(=O)(=O)C2)ncc1C1CC1` (single isomer, unassigned) [Example 291, N-[3-(2-amino-2-oxoethyl)-1,1-dioxothietan-3-yl]-5-cyclopropyl-4-[1-fluoropropan-2-yl]oxypyridine-2-carboxamide], the EC50 in assay [1] was 0.0003 µM; in assay [2] (setting [4]), more than 10 µM.

Molecule `CC(CF)Oc1cc(C(=O)NC2(CC(N)=O)CS(=O)(=O)C2)ncc1C1CC1` (single isomer, unassigned) [Example 292, N-[3-(2-amino-2-oxoethyl)-1,1-dioxothietan-3-yl]-5-cyclopropyl-4-[1-fluoropropan-2-yl]oxypyridine-2-carboxamide] displayed an EC50 in assay [1] of 0.0019 µM. In assay [2] (setting [3]), the negative-log EC50 (pEC50) is less than 5.00.

As for `Cc1nc(C(C)(CS(C)(=O)=O)NC(=O)c2cc(OC(C)CF)c(C3CC3)cn2)no1` (single isomer, unassigned) [Example 295, 5-cyclopropyl-4-(1-fluoropropan-2-yloxy)-N-(2-(5-methyl-1,2,4-oxadiazol-3-yl)-1-(methylsulfonyl)propan-2-yl)picolinamide], the EC50 in assay [1] is 0.0024 µM; in assay [2] (setting [4]), more than 10 µM.

As to `Cc1nc(C(C)(CS(C)(=O)=O)NC(=O)c2cc(OC(C)CF)c(C3CC3)cn2)no1` (single isomer, unassigned) [Example 296, 5-cyclopropyl-4-(1-fluoropropan-2-yloxy)-N-(2-(5-methyl-1,2,4-oxadiazol-3-yl)-1-(methylsulfonyl)propan-2-yl)picolinamide], in assay [1], it took 0.0422 µM to reach a half-maximal effect (EC50). The pEC50 in assay [2] (setting [3]) is less than 5.00.

Take `Cc1nc(C(C)(CS(C)(=O)=O)NC(=O)c2cc(OC(C)CF)c(C3CC3)cn2)no1` (single isomer, unassigned) [Example 297, 5-cyclopropyl-4-(1-fluoropropan-2-yloxy)-N-(2-(5-methyl-1,2,4-oxadiazol-3-yl)-1-(methylsulfonyl)propan-2-yl)picolinamide]: the pEC50 was 8.49 in assay [1] and less than 5.00 in assay [2] (setting [3]).

Turning to `Cc1nc(C(C)(CS(C)(=O)=O)NC(=O)c2cc(OC(C)CF)c(C3CC3)cn2)no1` (single isomer, unassigned) [Example 298, 5-cyclopropyl-4-(1-fluoropropan-2-yloxy)-N-(2-(5-methyl-1,2,4-oxadiazol-3-yl)-1-(methylsulfonyl)propan-2-yl)picolinamide], the figures for the pEC50 in assay [1] and in assay [2] (setting [3]) were 7.24 and less than 5.00, respectively.

For the molecule `CC(CF)Oc1cc(C(=O)NC(C)(CC(N)=O)C2CC2)ncc1C1CC1` (single isomer, unassigned) [Example 301, N-(4-amino-2-cyclopropyl-4-oxobutan-2-yl)-5-cyclopropyl-4-(1-fluoropropan-2-yloxy)picolinamide], the values for the EC50 in assay [1] and in assay [2] (setting [4]) were 0.0304 µM and more than 10 µM, respectively.

In the case of `CC(CF)Oc1cc(C(=O)NC(C)(CC(N)=O)C2CC2)ncc1C1CC1` (single isomer, unassigned) [Example 302, N-(4-amino-2-cyclopropyl-4-oxobutan-2-yl)-5-cyclopropyl-4-(1-fluoropropan-2-yloxy)picolinamide], the EC50 in assay [1] was found to be 0.001 µM; in assay [2] (setting [4]) it was 0.869 µM.

Regarding `CC(CF)Oc1cc(C(=O)NC(C)(CC(N)=O)C2CC2)ncc1C1CC1` (single isomer, unassigned) [Example 303, N-(4-amino-2-cyclopropyl-4-oxobutan-2-yl)-5-cyclopropyl-4-(1-fluoropropan-2-yloxy)picolinamide], the results for the pEC50 in assay [1] and in assay [2] (setting [5]) were 7.31 and less than 5.00, respectively.

For `CC(CF)Oc1cc(C(=O)NC(C)(CC(N)=O)C2CC2)ncc1C1CC1` (single isomer, unassigned) [Example 304, N-(4-amino-2-cyclopropyl-4-oxobutan-2-yl)-5-cyclopropyl-4-(1-fluoropropan-2-yloxy)picolinamide], the pEC50 in assay [1] is 8.68; in assay [2] (setting [5]), 6.09.

As to `Cc1nc(C(C)(NC(=O)c2cc(OCC(F)(F)F)c(C3(F)CCC3)cn2)C2CC2)no1` (single isomer, unassigned) [Example 306, N-(1-cyclopropyl-1-(5-methyl-1,2,4-oxadiazol-3-yl)ethyl)-5-(1-fluorocyclobutyl)-4-(2,2,2-trifluoroethoxy)picolinamide], the EC50 in assay [1] was 0.0118 µM; in assay [2] (setting [4]), more than 10 µM.

Consider `Cc1nc(C(C)(NC(=O)c2cc(OCC(F)(F)F)c(C3(F)CCC3)cn2)C2CC2)no1` (single isomer, unassigned) [Example 307, N-(1-cyclopropyl-1-(5-methyl-1,2,4-oxadiazol-3-yl)ethyl)-5-(1-fluorocyclobutyl)-4-(2,2,2-trifluoroethoxy)picolinamide], for which the EC50 in assay [1] amounted to 0.0034 µM; in assay [2] (setting [4]), 0.032 µM.

As for `CC(CC(N)=O)(NC(=O)c1cc(OCC(F)(F)F)c(C2(F)CCC2)cn1)C1CC1` (single isomer, unassigned) [Example 309, N-[4-amino-2-cyclopropyl-4-oxobutan-2-yl]-5-(1-fluorocyclobutyl)-4-(2,2,2-trifluoroethoxy)pyridine-2-carboxamide], the results for the EC50 in assay [1] and in assay [2] (setting [4]) were 0.002 µM and 0.475 µM, respectively.

In the case of `CC(CC(N)=O)(NC(=O)c1cc(OCC(F)(F)F)c(C2(F)CCC2)cn1)C1CC1` (single isomer, unassigned) [Example 310, N-[4-amino-2-cyclopropyl-4-oxobutan-2-yl]-5-(1-fluorocyclobutyl)-4-(2,2,2-trifluoroethoxy)pyridine-2-carboxamide], the EC50 in assay [1] is 0.0154 µM; in assay [2] (setting [4]), 2.44 µM.

`Cc1nc([C@@](C)(NC(=O)c2cc(OCC(F)(F)F)c(C3CC3)cn2)C2CC2)no1` (single isomer, unassigned; enantiomer a) [Example 61, 5-Cyclopropyl-4-(2,2,2-trifluoro-ethoxy)-pyridine-2-carboxylic acid [1-cyclopropyl-1-(5-methyl-[1,2,4]oxadiazol-3-yl)-ethyl]-amide (enantiomer A)]: the EC50 was 0.0276 µM in assay [1] and more than 10 µM in assay [2] (setting [4]).

On to `CC(C)C[C@H](CC(N)=O)NC(=O)c1cc(OCC(F)(F)F)c(C2CC2)cn1` (single isomer, unassigned; enantiomer a) [Example 65, 5-Cyclopropyl-4-(2,2,2-trifluoro-ethoxy)-pyridine-2-carboxylic acid (1-carbamoylmethyl-3-methyl-butyl)-amide (enantiomer A)], for which the values for the EC50 in assay [1] and in assay [2] (setting [4]) were 0.027 µM and more than 10 µM, respectively.

`Cc1nc(C(C)(CC2CC2)NC(=O)c2cc(OCC(F)(F)F)c(C3CC3)cn2)no1` (single isomer, unassigned; enantiomer a) [Example 66, 5-Cyclopropyl-4-(2,2,2-trifluoro-ethoxy)-pyridine-2-carboxylic acid [2-cyclopropyl-1-methyl-1-(5-methyl-[1,2,4]oxadiazol-3-yl)-ethyl]-amide (enantiomer A)]: the EC50 in assay [1] was 0.00595 µM; in assay [2] (setting [4]) it was more than 10 µM.

`Cc1nc([C@](C)(NC(=O)c2cc(OCC(F)(F)F)c(Cl)cn2)C2CC2)no1` (single isomer, unassigned; enantiomer a) [Example 74, 5-Chloro-4-(2,2,2-trifluoro-ethoxy)-pyridine-2-carboxylic acid [1-cyclopropyl-1-(5-methyl-[1,2,4]oxadiazol-3-yl)-ethyl]-amide (enantiomer A)]: the EC50 in assay [1] was 0.0133 µM; in assay [2] (setting [4]) it was more than 10 µM.

`Cc1nc([C@](C)(NC(=O)c2cc(OCC(F)(F)F)c(N3CC(F)(F)C3)cn2)C2CC2)no1` (single isomer, unassigned; enantiomer a) [Example 87, 5-(3,3-Difluoro-azetidin-1-yl)-4-(2,2,2-trifluoro-ethoxy)-pyridine-2-carboxylic acid [1-cyclopropyl-1-(5-methyl-[1,2,4]oxadiazol-3-yl)-ethyl]-amide (enantiomer A)]: the EC50 is 0.0568 µM in assay [1] and more than 10 µM in assay [2] (setting [4]).

With `Cc1nc([C@](C)(CC2CC2)NC(=O)c2cc(OCC(F)(F)F)c(C3CC3)cn2)no1` (single isomer, unassigned; enantiomer b) [Example 67, 5-Cyclopropyl-4-(2,2,2-trifluoro-ethoxy)-pyridine-2-carboxylic acid [2-cyclopropyl-1-methyl-1-(5-methyl-[1,2,4]oxadiazol-3-yl)-ethyl]-amide (enantiomer B)], the EC50 in assay [1] turned out to be 0.0037 µM; in assay [2] (setting [4]), 5.28 µM.
